{"source": "patent US20230226092A1", "about": "“CANCER […] ON G[…]” (NuCana plc, priority 2015, published 2023)", "tested_on": "primary acute myeloid leukaemia (AML) blasts", "assay": "In vitro cytotoxicity assay (annexin V apoptosis) in primary acute myeloid leukemia cells", "format": "cell-based, human", "conditions": "primary AML blasts, CD34+ cells, 48h, annexin V", "procedure": "NUC-1031 was assayed for its cytotoxic effects on primary cultures of acute myeloid leukaemia (AML) blasts. LD50 values (the concentration required to kill 50% of the tumour cells in culture) were calculated in respect of NUC-1031 and gemcitabine.\nBone marrow samples were collected in ethylenediaminetetraacetic acid (EDTA) from newly diagnosed, previously untreated, acute myeloid leukemia (AML) patients. AML blasts were enriched by density gradient centrifugation using Histopaque (Sigma, Poole, UK) and were subsequently maintained in Roswell Park Memorial Institute medium (RPMI) supplemented with 10% foetal bovine serum (FBS). Cells were treated with Gemcitabine or NUC-1031 at concentrations between 0.25 µM and 10 µM, and incubated for 48h. All cultures were maintained at 37° C. in a 5% CO2 humidified atmosphere.\nCells were harvested and labelled with CD34-fluorescein isothiocyanate (FITC) (BD Biosciences, Buckingham, UK) and then resuspended in 200 µl of binding buffer containing 4µl of annexin V labelled with allophycocyanin (APC) (eBioscience Ltd, Hatfield, UK). Apoptosis was quantified in the CD34^+ AML cells using an Accuri C6 flow cytometer (Becton Dickinson, CA, USA). At least 10,000 events were acquired and data were subsequently analysed using FlowJo software (Tree Star Inc., Ashland, OR, USA). All LD50 values (concentration of drug required to kill 50% of cells) were derived from the dose-response curves."}
{"molecule": "Nc1ccn([C@@H]2O[C@H](CO)[C@@H](O)C2(F)F)c(=O)n1", "note": "[gemcitabine, reference compound]", "values": [{"measurement": "mean LD50", "value": 3.1, "unit": "µM"}]}
